Read-outs that look alike come from different tables or passages of the source. Where a SMILES comes first, the peptide text is derived from it. [ ]: non-standard residue; d: D form. The star is where a group is joined. ξ: configuration not given here. Succinyl(4-O-cholesteryl) = CC(C)CCC[C@@H](C)[C@H]1CC[C@H]2[C@@H]3CC=C4C[C@@H](OC(=O)CCC(=O)*)CC[C@]4(C)[C@H]3CC[C@]12C; X1 = CC(C)CCCC(C)C1CCC2C3CC=C4CC(OC(=O)CCC(=O)*)CCC4(C)C3CCC12C; ξD = NC(CC(=O)O)C(=O)O
Tests used:
RSV A long virus strain = assay type: cell-based
Description: In this embodiment, an RSV-A long virus strain was used as an infection virus in the present disclosure. The anti-RSV activity of the synthesized polypeptide was determined through CPE detection.
The inhibitory activity of the compounds of Table 1-1-Table 1-5, positive polypeptide in Table 1-11, and positive control T-118 against the RSV-A long virus strain was detected.
(§1) Human Epithelial Pharyngeal Carcinoma Cells (HEp-2) were from the American Type Culture Collection (ATCC), with a catalog number CCL-23. The cells were cultured in a DMEM culture solution in which 10% fetal bovine serum, 1% sodium pyruvate, 1% nonessential amino acids, 2 mM glutamine, 100 U/mL penicillin, and 100 μg/mL streptomycin were added. The RSV A long virus strain was from the ATCC, with a catalog number VR-26.
This study used a plaque reduction experiment to detect the in-vitro activity of a test sample against the RSV A long virus strain. The test sample and a control compound were tested at 8 concentrations in duplicated wells. The HEp-2 cells were digested with trypsin and then diluted to a concentration of 300,000 cells per milliliter by using an experimental culture solution. The diluted cells were added to a 96-well cell test board, with 100 μL per well, corresponding to 30000 cells per well. The cells were cultured overnight in a 37° C. incubator with 5% CO2. On the second day, the test sample was diluted in an experimental culture medium at a fold ratio. The sample diluted at a fold ratio and an equal volume of virus (100 PFU per well) were well mixed and incubated at 37° C. in 5% CO2 for 1 h. Then, the culture solution in the 96-well cell test board was discarded, the sample virus mixed solution (200 μL) was added to the 96-well cell culture plate, and incubated at 37° C. in 5% CO2 for 2 hours. After 2 h, the sample virus mixed solution was discarded, and 200 μL of maintenance culture medium containing 0.8% CMC and the corresponding concentration of the test sample was added. A cell control (cells, without compound treatment or viral infection) and a viral control (cell infection virus, without compound treatment) were set. The cells were cultured for 1 day in the 37° C. incubator with 5% CO2. One day after viral infection, the culture medium was discarded, the cells were fixed with 4% paraformaldehyde, and then permeabilization was performed with 0.5% Triton X-100. After the plate was washed with DPBS, an RSV-specific antibody (RSV antibody, diluted 1:3000) was added and incubated at 37° C. for 1 h. Then, a secondary antibody (donkey anti-goat IgG, diluted 1:500) and incubated at 37° C. for 1 h. The secondary antibody was discarded, a TrueBlue solution was added, dyeing was performed for 10 min; and the plate was washed with running water and then air-dried, and the number of spots in each well was counted by using a microplate imaging counter. Raw data was used for calculating the antiviral activity of the samples.
(§2) The raw data for plaque counts and cell viability tests were used for analyzing the antiviral activity and cytotoxicity of the test samples, respectively. A calculation formula was shown as follows.
% inhibition rate=100−(sample value-cell control average value)/(virus control average value-cell control average value)×100%
(§3) Non-linear fitting analysis was performed on the inhibition rate of the sample by using GraphPad Prism (version 10), so as to calculate the IC50 and CC50 values for the sample.
IC50: in an in-vitro antiviral activity experiment, IC50 represented an inhibition ability indicator of a compound to be tested against the Hep-2 cells infected by the RSV A long virus strain.

[1] = Cytotoxicity test in HEp-2 cells (CCK8 cell viability); assay type: cell-based; conditions: human
Description: as §1
A cytotoxicity test and an antiviral test were performed in parallel. The HEp-2 cells were inoculated in the microplate at a density of 30,000 cells per well, and cultured overnight in the 37° C. incubator with 5% CO2. On the next day, the diluted test sample was added. The cell control (cells, without compound treatment) and a culture solution control (culture solution only, without cell or compound treatment) were set. A final concentration of DMSO in the culture solution was 0.5%. The cells were cultured for 1 day in the 37° C. incubator with 5% CO2. Cell viability was detected by using a cell viability detection kit CCK8.
as §2
cell survival rate=(sample value-culture medium control average value)/(cell control average value-culture medium control average value)×100
as §3
CC50: in the in-vitro antiviral activity experiment, CC50 was used to measure the toxicity of the compound to be tested to the Hep-2 cells. To be precise, when the compound to be tested was at a specific concentration, 50% of the Hep-2 cells was caused to die, and this concentration was defined as the CC50. A fitting formula was log (inhibitor) vs. response-Variable slope (four parameters).

[2] = RSV A long virus strain, HEp-2 cells, plaque reduction, 1 day, read-out: IC50
[3] = HEp-2 cells, CCK8, 1 day, read-out: CC50

**Q.** Which results are given for CC[C@H](C)[C@H](NC(C)=O)C(=O)N[C@@H](CCC(=O)O)C(=O)N[C@@H](CCC(N)=O)C(=O)N[C@H](C(=O)N[C@@H](CC(N)=O)C(=O)N[C@@H](CCCCN)C(=O)N[C@@H](CCCCN)C(=O)N[C@H](C(=O)N[C@@H](CCC(=O)O)C(=O)N[C@@H](CCC(N)=O)C(=O)N[C@@H](CO)C(=O)N[C@@H](CC(C)C)C(=O)N[C@@H](CCCCN)C(=O)N[C@@H](Cc1ccccc1)C(=O)N[C@H](C(=O)N[C@@H](CCC(=O)O)C(=O)N[C@@H](CCCCN)C(=O)N[C@@H](CO)C(=O)N[C@@H](CC(=O)O)C(=O)N[C@@H](CCCCN)C(=O)N[C@@H](CC(C)C)C(=O)N[C@@H](CC(C)C)C(=O)N[C@@H](CCC(=O)O)C(=O)N[C@@H](CC(N)=O)C(=O)N[C@H](C(=O)N[C@@H](CC(N)=O)C(=O)N[C@@H](CCCCN)C(=O)NCC(=O)N[C@@H](CCCCN)C(N)=O)C(C)C)[C@@H](C)CC)[C@@H](C)CC)C(C)C [Positive polypeptide 2, reference compound] (Ac-IEQVNKKIEQSLKFIEKSDKLLENVNKGK-NH2)?
**A.** IC50 (RSV A long virus strain; [2]): > 0.3 µM; CC50 at 1 day [1, 3]: > 10 µM

**Q.** What does the source list for CC[C@H](C)[C@H](NC(=O)[C@H](CCCCN)NC(=O)[C@H](CCCCN)NC(=O)[C@H](CC(N)=O)NC(=O)[C@@H](NC(=O)[C@H](CCC(N)=O)NC(=O)[C@H](CCC(=O)O)NC(=O)[C@H](CC(C)C)NC(=O)[C@H](CO)NC(C)=O)C(C)C)C(=O)N[C@@H](CC(N)=O)C(=O)N[C@@H](CCC(N)=O)C(=O)N[C@@H](CO)C(=O)N[C@@H](CC(C)C)C(=O)N[C@@H](CCCCN)C(=O)N[C@H](C(=O)N[C@@H](CC(N)=O)C(=O)N[C@@H](CCCCN)C(=O)N[C@@H](CCCCN)C(=O)N[C@@H](CO)C(=O)N[C@@H](CC(=O)O)C(=O)N[C@@H](CCCCN)C(=O)N[C@@H](CC(C)C)C(=O)N[C@@H](CC(C)C)C(=O)N[C@@H](CCC(=O)O)C(=O)N[C@@H](CC(N)=O)C(=O)N[C@@H](CCC(=O)O)C(=O)N[C@@H](C)C(=O)N[C@@H](C)C(=O)N[C@@H](C)C(=O)N[C@@H](CCCCN)C(=O)N[C@@H](CCCCNC(=O)CCC(=O)OC1CCC2(C)C(=CCC3C2CCC2(C)C(C(C)CCCC(C)C)CCC32)C1)C(N)=O)C(C)C (stereo partly drawn) [Compound 33] (Ac-SLEQVNKKINQSLKVNKKSDKLLENEAAAKK(X1)-NH2)?
**A.** IC50 (RSV A long virus strain; [2]): 5.04 µM; CC50 at 1 day [1, 3]: > 8 µM

**Q.** For CC[C@H](C)[C@H](NC(=O)[C@H](CCCCN)NC(=O)[C@H](CCCCN)NC(=O)[C@H](CC(C)C)NC(=O)[C@@H](NC(=O)[C@H](CCC(=O)O)NC(=O)[C@H](CCC(=O)O)NC(=O)[C@@H](NC(=O)[C@H](CCCCN)NC(=O)[C@H](CCC(=O)O)NC(=O)[C@H](CC(N)=O)NC(=O)[C@@H](NC(=O)[C@H](CCC(=O)O)NC(=O)[C@H](CC(N)=O)NC(=O)[C@@H](NC(=O)[C@H](CCCCN)NC(=O)[C@H](CCC(N)=O)NC(=O)[C@H](CC(N)=O)NC(=O)[C@H](Cc1ccccc1)NC(=O)[C@H](CCC(=O)O)NC(=O)[C@H](CC(=O)O)NC(=O)[C@H](CC(=O)O)NC(C)=O)[C@@H](C)CC)C(C)C)[C@@H](C)CC)[C@@H](C)CC)C(=O)N[C@@H](CCC(=O)O)C(=O)N[C@@H](CCC(=O)O)C(=O)N[C@@H](CO)C(=O)N[C@@H](CC(=O)O)C(=O)N[C@@H](CCCNC(=N)N)C(=O)N[C@@H](CCCCN)C(=O)N[C@@H](CC(C)C)C(=O)N[C@@H](CCC(=O)O)C(=O)N[C@@H](CCC(=O)O)C(=O)N[C@@H](CO)C(=O)N[C@@H](CC(=O)O)C(=O)N[C@@H](CCCCN)C(=O)N[C@@H](CCCCN)C(=O)N[C@@H](C)C(N)=O [Compound 2] (Ac-DDEFNQKINEVNEKIEEILKKIEESDRKLEESDKKA-NH2), which IC50 (RSV A long virus strain) is on record?
**A.** > 8 µM

**Q.** What about the CC50 at 1 day [1] of the same compound?
**A.** > 8 µM

**Q.** With “Ac-FDASISQVNEKINQSLAFIRKSDELLHNVNAGKSTTEAAAKK(X1)-NH2 [Positive polypeptide 7, reference compound]” as the compound, how does the IC50 (RSV A long virus strain; [2]) read?
**A.** > 0.3 µM

**Q.** And the CC50 at 1 day [1, 3]?
**A.** > 10 µM

**Q.** With “Ac-WDEFDKKIEEVNKKIEESLKKIEESDKKLEEVNKKLGSGSGK(X1)-NH2 [Compound 11]” as the compound, how does the IC50 (RSV A long virus strain; [2]) read?
**A.** 0.0991 µM

**Q.** And the CC50 at 1 day [1, 3]?
**A.** > 8 µM

**Q.** Which CC50 at 1 day [1, 3] does the source give for CC[C@H](C)[C@H](NC(=O)[C@H](CCCCN)NC(=O)[C@H](CCCCN)NC(=O)[C@H](CC(C)C)NC(=O)[C@H](CO)NC(=O)[C@H](CCC(=O)O)NC(=O)[C@H](CCC(=O)O)NC(=O)[C@@H](NC(=O)[C@H](CCCCN)NC(=O)[C@H](CCCCN)NC(=O)[C@H](CC(N)=O)NC(=O)[C@@H](NC(=O)[C@H](CCC(=O)O)NC(=O)[C@H](CCC(=O)O)NC(=O)[C@@H](NC(=O)[C@H](CCCCN)NC(=O)[C@H](CCCCN)NC(=O)[C@H](CCCCN)NC(=O)[C@H](CC(=O)O)NC(=O)[C@H](Cc1ccccc1)NC(=O)[C@H](CCC(=O)O)NC(=O)[C@H](CC(=O)O)NC(C)=O)[C@@H](C)CC)C(C)C)[C@@H](C)CC)C(=O)N[C@@H](CCC(=O)O)C(=O)N[C@@H](CCC(=O)O)C(=O)N[C@@H](CO)C(=O)N[C@@H](CC(=O)O)C(=O)N[C@@H](CCCCN)C(=O)N[C@@H](CCCCN)C(=O)N[C@@H](CC(C)C)C(=O)N[C@@H](CCC(=O)O)C(=O)N[C@@H](CCC(=O)O)C(=O)N[C@H](C(=O)N[C@@H](CCC(=O)O)C(=O)N[C@@H](C)C(=O)N[C@@H](C)C(=O)N[C@@H](C)C(=O)N[C@@H](CCCCN)C(=O)N[C@@H](CCCCNC(=O)CCC(=O)O[C@H]1CC[C@@]2(C)C(=CC[C@H]3[C@@H]4CC[C@H]([C@H](C)CCCC(C)C)[C@@]4(C)CC[C@@H]32)C1)C(N)=O)C(C)C [Compound 22] (Ac-DEFDKKKIEEVNKKIEESLKKIEESDKKLEEVEAAAKK(Succinyl(4-O-cholesteryl))-NH2) here?
**A.** 3.7 µM

**Q.** For CC[C@H](C)[C@H](NC(=O)[C@H](CCCCN)NC(=O)[C@H](CCCCN)NC(=O)[C@H](CC(C)C)NC(=O)[C@H](CO)NC(=O)[C@H](CCC(=O)O)NC(=O)[C@H](CCC(=O)O)NC(=O)[C@@H](NC(=O)[C@H](CCCCN)NC(=O)[C@H](CCCCN)NC(=O)[C@H](CC(N)=O)NC(=O)[C@@H](NC(=O)[C@H](CCC(=O)O)NC(=O)[C@H](CCC(=O)O)NC(=O)[C@@H](NC(=O)[C@H](CCCCN)NC(=O)[C@H](CCCCN)NC(=O)[C@H](CCCCN)NC(=O)[C@H](CC(=O)O)NC(=O)[C@H](Cc1ccccc1)NC(=O)[C@H](CCC(=O)O)NC(=O)C(CC(=O)O)NC(C)=O)[C@@H](C)CC)C(C)C)[C@@H](C)CC)C(=O)N[C@@H](CCC(=O)O)C(=O)N[C@@H](CCC(=O)O)C(=O)N[C@@H](CO)C(=O)N[C@@H](CC(=O)O)C(=O)N[C@@H](CCCCN)C(=O)N[C@@H](CCCCN)C(=O)N[C@@H](CC(C)C)C(=O)N[C@@H](CCC(=O)O)C(=O)N[C@@H](CCC(=O)O)C(=O)N[C@H](C(=O)NCC(=O)N[C@@H](CO)C(=O)NCC(=O)N[C@@H](CO)C(=O)NCC(=O)N[C@@H](CCCCNC(=O)CCC(=O)O[C@H]1CC[C@@]2(C)C(=CC[C@H]3[C@@H]4CC[C@H]([C@H](C)CCCC(C)C)[C@@]4(C)CC[C@@H]32)C1)C(N)=O)C(C)C (stereo partly drawn) [Compound 18] (Ac-[ξD]EFDKKKIEEVNKKIEESLKKIEESDKKLEEVGSGSGK(Succinyl(4-O-cholesteryl))-NH2), which CC50 at 1 day [1, 3] is on record?
**A.** 6.4 µM
